Reference: ChEMBL document CHEMBL5725270, “Substituted imidazopyridazines” (2016)

Assay: Time-Resolved Fluorescence Resonance Energy Transfer (TR-FRET) Assay: The human kinase Mps-1 phosphorylates a biotinylated substrate peptide. Detection of the phosphorylated product is achieved by time-resolved fluorescence resonance energy transfer (TR-FRET) from Europium-labelled anti-phospho-Serine/Threonine antibody as donor to streptavidin labelled with cross-linked allophycocyanin (SA-XLent) as acceptor. Compounds are tested for their inhibition of the kinase activity.N-terminally GST-tagged human full length recombinant Mps-1 kinase (purchased from Invitrogen, Karslruhe, Germany, cat. no PV4071) was used. […] The concentration of Mps-1 in the assay was adjusted to the activity of the enzyme lot and was chosen appropriate to have the assay in the linear range, typical enzyme concentrations were in the range of about 1 nM (final conc. in the 5 ul assay volume).

Row | SMILES | IC50 [nM]
1 | Cc1cc(-c2cnc3c(NCCC(F)(F)F)cc(C(C)(O)c4cccc(F)c4O)nn23)ccc1C(=O)NC1CC1 (configuration not stated) | 0.3
2 | Cc1cc(-c2cnc3c(NCCC(F)(F)F)cc(C4(c5cc(F)ccc5F)CC4)nn23)ccc1C(=O)NC1CC1 | 0.8
3 | C=C(c1cccc(F)c1)c1cc(NCCC(F)(F)F)c2ncc(-c3ccc(C(=O)NC4CC4)c(C)c3)n2n1 | 0.3
4 | Cc1cc(-c2cnc3c(NCCC(F)(F)F)cc(C(=O)c4cccc(F)c4F)nn23)ccc1C(=O)NC1CC1 | 0.6
5 | C=C(c1ccc(OC)cc1)c1cc(NCCC(F)(F)F)c2ncc(-c3ccc(C(=O)NC4CC4)c(C)c3)n2n1 | 0.5
6 | COc1ccc(C(=O)c2cc(NCCC(F)(F)F)c3ncc(-c4ccc(C(=O)NC5CC5)c(C)c4)n3n2)cc1 | 1.2
7 | Cc1cc(-c2cnc3c(NCCC(F)(F)F)cc(C(=O)c4cc(F)ccc4F)nn23)ccc1C(=O)NC1CC1 | 0.6
8 | Cc1cc(-c2cnc3c(NCCC(F)(F)F)cc(C4(c5cccc(F)c5)CC4)nn23)ccc1C(=O)NC1CC1 | 0.9
9 | C=C(c1cc(NCCC(F)(F)F)c2ncc(-c3ccc(C(=O)NC4CC4)c(C)c3)n2n1)c1cc(F)ccc1O | 0.4
10 | C=C(c1cc(NCCC(F)(F)F)c2ncc(-c3ccc(C(=O)NC4CC4)c(C)c3)n2n1)c1cccc(F)c1F | 0.4
11 | Cc1cc(-c2cnc3c(NCCC(F)(F)F)cc(C(F)c4cccc(F)c4)nn23)ccc1C(=O)NC1CC1 (configuration not stated) | 0.7
12 | Cc1cc(-c2cnc3c(NCCC(F)(F)F)cc(C(O)c4cc(F)ccc4F)nn23)ccc1C(=O)NC1CC1 (configuration not stated) | 0.3
13 | COc1cccc(C(=O)c2cc(NCCC(F)(F)F)c3ncc(-c4ccc(C(=O)NC5CC5)c(C)c4)n3n2)c1 | 0.5
14 | Cc1cc(-c2cnc3c(NCCC(F)(F)F)cc(C(F)(F)c4cccc(F)c4F)nn23)ccc1C(=O)NC1CC1 | 1.5
15 | C=C(c1cc(NCCC(F)(F)F)c2ncc(-c3ccc(C(=O)NC4CC4)c(C)c3)n2n1)c1cc(F)ccc1F | 0.6
16 | C=C(c1cccc(OC)c1)c1cc(NCCC(F)(F)F)c2ncc(-c3ccc(C(=O)NC4CC4)c(C)c3)n2n1 | 0.8
17 | Cc1cc(-c2cnc3c(NCCC(F)(F)F)cc(C(F)(F)c4cc(F)ccc4F)nn23)ccc1C(=O)NC1CC1 | 0.5
